{
  "source": "ChEMBL document CHEMBL1201862",
  "about": "“PubChem BioAssay data set” (2004)",
  "key": {"[1]": {"assay": "Luminescence Cell-Based Dose Retest to Confirm Inhibitors of Cancer Stem Cells. [Related pubchem assays (depositor defined):AID2717, AID2721]", "format": "functional", "conditions": "Homo sapiens"}, "[2]": {"biological_target": "T1, Cytochrome P450 1A2 (Homo sapiens, UniProt P05177)", "T1 sequence (P05177 whole entry)": "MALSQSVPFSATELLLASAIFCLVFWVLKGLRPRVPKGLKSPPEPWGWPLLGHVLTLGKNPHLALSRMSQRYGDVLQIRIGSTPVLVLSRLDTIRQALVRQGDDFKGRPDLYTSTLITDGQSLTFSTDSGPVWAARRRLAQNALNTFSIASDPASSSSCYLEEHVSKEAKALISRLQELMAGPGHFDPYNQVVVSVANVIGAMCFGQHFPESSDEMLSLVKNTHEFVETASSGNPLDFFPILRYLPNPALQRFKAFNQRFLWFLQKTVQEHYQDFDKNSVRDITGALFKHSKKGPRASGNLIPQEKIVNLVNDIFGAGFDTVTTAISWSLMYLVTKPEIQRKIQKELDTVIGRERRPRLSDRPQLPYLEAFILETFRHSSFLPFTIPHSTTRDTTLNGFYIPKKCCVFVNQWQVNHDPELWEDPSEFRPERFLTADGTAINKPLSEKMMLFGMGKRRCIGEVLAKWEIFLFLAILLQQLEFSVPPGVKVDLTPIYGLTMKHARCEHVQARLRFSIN"}, "[3]": {"biological_target": "Cytochrome P450 2D6 (Homo sapiens, UniProt P10635)", "sequence (P10635 whole entry)": "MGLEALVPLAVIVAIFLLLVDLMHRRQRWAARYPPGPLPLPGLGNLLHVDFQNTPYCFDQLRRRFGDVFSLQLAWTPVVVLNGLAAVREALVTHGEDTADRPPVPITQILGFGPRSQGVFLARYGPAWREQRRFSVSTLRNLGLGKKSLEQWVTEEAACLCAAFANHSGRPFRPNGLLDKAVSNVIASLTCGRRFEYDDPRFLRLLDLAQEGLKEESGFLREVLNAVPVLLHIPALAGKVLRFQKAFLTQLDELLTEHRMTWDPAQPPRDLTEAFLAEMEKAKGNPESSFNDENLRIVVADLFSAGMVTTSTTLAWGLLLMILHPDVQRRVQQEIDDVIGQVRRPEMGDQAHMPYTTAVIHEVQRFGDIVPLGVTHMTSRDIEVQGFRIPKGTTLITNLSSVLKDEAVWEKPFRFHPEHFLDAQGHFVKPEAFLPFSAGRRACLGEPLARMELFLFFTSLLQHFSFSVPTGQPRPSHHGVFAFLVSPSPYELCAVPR"}, "[4]": {"biological_target": "Luciferin 4-monooxygenase (Photinus pyralis, UniProt P08659)", "sequence (P08659 whole entry)": "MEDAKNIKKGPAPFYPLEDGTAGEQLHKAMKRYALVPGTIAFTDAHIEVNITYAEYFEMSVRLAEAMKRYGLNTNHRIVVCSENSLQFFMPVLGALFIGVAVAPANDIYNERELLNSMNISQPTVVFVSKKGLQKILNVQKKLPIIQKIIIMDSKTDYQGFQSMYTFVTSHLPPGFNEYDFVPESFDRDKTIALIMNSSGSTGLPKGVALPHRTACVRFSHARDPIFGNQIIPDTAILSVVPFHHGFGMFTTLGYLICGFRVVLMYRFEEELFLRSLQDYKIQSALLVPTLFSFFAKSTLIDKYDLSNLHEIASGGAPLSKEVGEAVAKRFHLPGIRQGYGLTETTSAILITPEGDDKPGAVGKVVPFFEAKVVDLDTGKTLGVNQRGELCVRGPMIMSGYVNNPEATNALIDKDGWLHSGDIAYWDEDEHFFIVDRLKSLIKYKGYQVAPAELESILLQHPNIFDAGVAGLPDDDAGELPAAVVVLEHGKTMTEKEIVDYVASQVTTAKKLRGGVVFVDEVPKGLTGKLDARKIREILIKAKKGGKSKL", "assay": "inhibition of purified Photinus pyralis luciferase – biochemical, luminescence, dose response (AID 1891)"}, "[5]": {"assay": "Luminescence Cell-Based Dose Confirmation HTS to Identify Inhibitors of Platelet Dense Granule Release. [Related pubchem assays: 1663 (Primary HTS), 1678 (Summary of Project)]", "format": "functional"}, "[6]": {"biological_target": "Cytochrome P450 2C19 (Homo sapiens, UniProt P33261)", "sequence (P33261 whole entry)": "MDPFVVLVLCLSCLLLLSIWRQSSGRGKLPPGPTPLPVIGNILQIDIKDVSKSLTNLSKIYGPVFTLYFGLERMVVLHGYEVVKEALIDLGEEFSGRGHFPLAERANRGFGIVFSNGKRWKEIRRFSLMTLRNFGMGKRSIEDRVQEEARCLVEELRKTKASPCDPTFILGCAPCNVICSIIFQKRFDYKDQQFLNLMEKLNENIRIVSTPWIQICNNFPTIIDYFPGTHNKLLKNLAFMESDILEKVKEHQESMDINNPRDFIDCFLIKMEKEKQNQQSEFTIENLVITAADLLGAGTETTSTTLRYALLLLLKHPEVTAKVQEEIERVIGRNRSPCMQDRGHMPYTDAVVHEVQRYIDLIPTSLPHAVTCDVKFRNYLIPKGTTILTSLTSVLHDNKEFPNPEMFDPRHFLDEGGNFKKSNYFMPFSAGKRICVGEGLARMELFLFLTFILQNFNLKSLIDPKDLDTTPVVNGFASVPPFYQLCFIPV", "assay": "Cytochrome panel assay with activity outcomes. Panel member name: p450-cyp2c19 Compounds with AC50 equal or less than 10 uM are considered active", "format": "functional", "conditions": "read-out: AC50"}, "[7]": {"biological_target": "T2, RNA-binding protein pos-1 (Caenorhabditis elegans, UniProt G5EF15)", "T2 sequence (G5EF15 whole entry)": "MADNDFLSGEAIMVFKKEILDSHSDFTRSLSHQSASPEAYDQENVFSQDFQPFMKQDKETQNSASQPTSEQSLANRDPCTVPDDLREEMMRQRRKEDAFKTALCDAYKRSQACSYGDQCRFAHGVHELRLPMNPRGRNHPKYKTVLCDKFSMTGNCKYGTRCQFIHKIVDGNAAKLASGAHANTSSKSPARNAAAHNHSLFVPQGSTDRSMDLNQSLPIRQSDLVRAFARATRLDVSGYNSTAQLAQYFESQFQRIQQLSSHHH", "assay": "disruptors of C. elegans POS-1 RNA interaction – biochemical, fluorescence polarization, dose response (AID 1964);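 also: purified POS-1 fused to maltose binding protein made in E. coli; potency of compounds blocking POS-1 binding to fluorescent RNA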"}, "[8]": {"biological_target": "T3, Zinc finger protein mex-5 (Caenorhabditis elegans, UniProt Q9XUB2)", "T3 sequence (Q9XUB2 whole entry)": "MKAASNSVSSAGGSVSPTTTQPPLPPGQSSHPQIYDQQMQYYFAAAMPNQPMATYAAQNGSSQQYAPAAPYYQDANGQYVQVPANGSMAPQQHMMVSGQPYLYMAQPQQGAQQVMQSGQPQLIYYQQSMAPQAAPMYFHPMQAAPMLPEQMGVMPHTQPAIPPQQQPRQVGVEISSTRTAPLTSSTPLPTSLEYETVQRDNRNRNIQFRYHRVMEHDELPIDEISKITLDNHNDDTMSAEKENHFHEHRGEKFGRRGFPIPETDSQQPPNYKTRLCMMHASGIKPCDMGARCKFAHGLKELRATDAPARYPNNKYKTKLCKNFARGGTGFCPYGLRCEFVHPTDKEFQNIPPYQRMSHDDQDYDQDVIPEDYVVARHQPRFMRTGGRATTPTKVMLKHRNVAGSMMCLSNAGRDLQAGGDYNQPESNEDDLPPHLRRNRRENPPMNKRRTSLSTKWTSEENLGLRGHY", "assay": "potency of MEX-5 RNA-binding blockers – biochemical, C. elegans, fluorescence polarization, dose response (AID 1960)"}, "[9]": {"biological_target": "Cytochrome P450 2C9 (Homo sapiens, UniProt P11712)", "sequence (P11712 whole entry)": "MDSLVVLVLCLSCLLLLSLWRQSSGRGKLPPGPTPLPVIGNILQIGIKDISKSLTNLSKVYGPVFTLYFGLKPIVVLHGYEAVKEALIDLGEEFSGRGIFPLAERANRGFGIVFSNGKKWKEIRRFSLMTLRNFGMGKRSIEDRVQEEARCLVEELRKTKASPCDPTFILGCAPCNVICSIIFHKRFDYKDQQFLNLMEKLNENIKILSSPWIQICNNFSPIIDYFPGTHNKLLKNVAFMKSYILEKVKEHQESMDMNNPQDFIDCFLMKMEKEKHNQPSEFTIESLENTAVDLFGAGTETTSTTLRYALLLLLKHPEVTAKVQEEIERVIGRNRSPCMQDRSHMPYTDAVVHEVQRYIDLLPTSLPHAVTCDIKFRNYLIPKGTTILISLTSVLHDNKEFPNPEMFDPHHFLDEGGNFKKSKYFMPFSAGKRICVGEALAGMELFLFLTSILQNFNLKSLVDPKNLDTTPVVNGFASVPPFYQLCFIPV"}, "[10]": {"biological_target": "Paired box protein Pax-8 (Homo sapiens, UniProt Q06710)", "sequence (Q06710 whole entry)": "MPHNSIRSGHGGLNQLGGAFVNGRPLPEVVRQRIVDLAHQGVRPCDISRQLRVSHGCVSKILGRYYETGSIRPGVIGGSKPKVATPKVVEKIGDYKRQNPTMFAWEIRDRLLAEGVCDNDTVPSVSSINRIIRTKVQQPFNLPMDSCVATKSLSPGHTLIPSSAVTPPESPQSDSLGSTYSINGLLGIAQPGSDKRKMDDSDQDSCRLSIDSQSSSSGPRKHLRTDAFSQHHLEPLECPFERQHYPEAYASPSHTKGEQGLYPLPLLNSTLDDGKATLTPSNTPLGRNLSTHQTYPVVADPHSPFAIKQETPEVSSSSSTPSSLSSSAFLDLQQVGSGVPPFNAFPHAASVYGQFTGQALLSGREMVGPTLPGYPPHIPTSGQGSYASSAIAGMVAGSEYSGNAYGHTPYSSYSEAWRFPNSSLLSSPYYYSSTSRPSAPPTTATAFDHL", "assay": "PAX8 transcriptional activity inhibition in RMG-I – RMG-I cells, luciferase, cherry-pick, dose response (AID 687027);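 also: luciferase reporter driven by Pax8 target thyroperoxidase promoter measured by SteadyGlo luminescence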", "format": "functional, cell-based"}, "[11]": {"assay": "luciferase reporter signal suppression in cells – H4 neuroglioma cells, luminescence, dose response (AID 1990)", "format": "functional, cell-based"}, "[12]": {"assay": "Luminescence Cell-Based Dose Response HTS to Identify Inhibitors of 5'UTR Stem-Loop Driven Prion Protein mRNA Translation in H4 Neuroglioblastoma Cells. [Related pubchem assays: 1827 (Project Summary), 1813 (Primary HTS)]", "format": "functional"}, "[13]": {"assay": "alpha-synuclein stem-loop luciferase translation blockers – H4 neuroglioma cells, luminescence, confirmation (AID 1988)", "format": "functional, cell-based"}, "[14]": {"assay": "cells", "format": "functional"}, "[15]": {"assay": "reduction of Shn3 3'UTR-driven luciferase in osteoblasts – cell-based, Clone20 osteoblasts, firefly luciferase, cherry-picked, dose response (AID 624132)", "format": "functional"}, "[16]": {"assay": "non-specific 3'UTR reporter inhibition in Clone20-Shn3RL – cell-based, Renilla luciferase, cherry-picked, counter-screen for Shn3 inhibitor project, dose response (AID 624133)", "format": "functional"}, "[17]": {"biological_target": "Cytochrome P450 3A4 (Homo sapiens, UniProt P08684)", "sequence (P08684 whole entry)": "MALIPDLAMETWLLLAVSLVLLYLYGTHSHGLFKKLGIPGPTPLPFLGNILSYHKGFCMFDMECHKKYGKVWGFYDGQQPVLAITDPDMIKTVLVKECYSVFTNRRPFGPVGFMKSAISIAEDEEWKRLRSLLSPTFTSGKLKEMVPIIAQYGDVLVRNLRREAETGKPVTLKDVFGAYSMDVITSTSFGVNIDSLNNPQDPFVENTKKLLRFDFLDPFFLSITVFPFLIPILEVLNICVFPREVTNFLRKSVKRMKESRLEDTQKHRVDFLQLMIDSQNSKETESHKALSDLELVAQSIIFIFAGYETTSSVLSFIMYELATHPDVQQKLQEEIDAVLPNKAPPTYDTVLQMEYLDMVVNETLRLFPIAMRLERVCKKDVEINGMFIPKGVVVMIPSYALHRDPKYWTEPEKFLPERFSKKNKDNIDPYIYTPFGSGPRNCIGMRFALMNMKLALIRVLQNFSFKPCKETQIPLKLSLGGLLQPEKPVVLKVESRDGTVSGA"}},
  "note": "Calls of active or inactive are those of the source.",
  "data": [
    {"smiles": "O=C(c1cnc2ccc3ccccc3c2c1)c1cc(F)ccc1O", "values": [
      {"measurement": "AC50", "setting": "[1]", "value": "0.562 µM (active)"}
    ]},
    {"smiles": "CCC(NC(=O)C1(C)CC1(Br)Br)c1ccc(C)cc1", "note": "(stereo unspecified)", "values": [
      {"measurement": "AC50", "setting": "[2]", "value": "20 µM (inconclusive)"},
      {"measurement": "AC50", "setting": "[3]", "value": "7.94 µM (inconclusive)"}
    ]},
    {"smiles": "COc1ccc(S(=O)(=O)N2CCN(Cc3ccc4c(c3)OCO4)CC2)c2ccccc12", "values": [
      {"measurement": "EC50", "setting": "[4]", "value": "> 112 µM (not active)"},
      {"measurement": "EC50", "setting": "[5]", "value": "> 112 µM (not active)"}
    ]},
    {"smiles": "O=C(CSCc1ccccc1)Nc1cccc(C(=O)Nc2ccccc2C(=O)O)c1", "values": [
      {"measurement": "AC50", "setting": "[2]", "value": "15.8 µM (inconclusive)"}
    ]},
    {"smiles": "COC(=O)[C@@]1(Cc2ccc(F)cc2)[C@H]2c3cc(C(=O)N4CCCC4)n(Cc4cccc5ccccc45)c3C[C@H]2CN1C(=O)c1ccccc1", "values": [
      {"measurement": "AC50", "setting": "[2]", "value": "15.8 µM (inconclusive)"},
      {"measurement": "AC50", "setting": "[6]", "value": "7.94 µM (inconclusive)"}
    ]},
    {"smiles": "CCOC(=O)c1cc(-c2ccccc2)sc1NC(=S)Nc1cc(C)ccn1", "values": [
      {"measurement": "AC50", "setting": "[2]", "value": "3.55 µM (inconclusive)"},
      {"measurement": "EC50", "setting": "[7]", "value": "11.1 µM (inconclusive)"},
      {"measurement": "EC50", "setting": "[8]", "value": "0.77 µM (inconclusive)"},
      {"measurement": "AC50", "setting": "[9]", "value": "5.62 µM (inconclusive)"},
      {"measurement": "AC50", "setting": "[6]", "value": "6.31 µM (inconclusive)"}
    ]},
    {"smiles": "C[C@@H]1CCCCO[C@H](CN(C)Cc2ccc(C(F)(F)F)cc2)[C@H](C)CN([C@@H](C)CO)C(=O)c2cc(NC(=O)Nc3ccc(F)cc3)ccc2O1", "values": [
      {"measurement": "AC50", "setting": "[10]", "value": "8.21 µM (active)"}
    ]},
    {"smiles": "C=CCNc1nc(N)c([N+](=O)[O-])c(N2CCCCCC2)n1", "values": [
      {"measurement": "EC50", "setting": "[11]", "value": "> 120 µM (not active)"},
      {"measurement": "EC50", "setting": "[12]", "value": "> 120 µM (not active)"},
      {"measurement": "EC50", "setting": "[13]", "value": "26.7 µM (active)"}
    ]},
    {"smiles": "CC(c1ccccc1)N1C(=O)/C(=C/c2ccncc2)SC1=S", "note": "(stereo unspecified)", "values": [
      {"measurement": "AC50", "setting": "[1]", "value": "19 µM (active)"}
    ]},
    {"smiles": "OC(CSc1ccccc1Cl)CN1CCN(c2ccc(F)cc2)CC1", "note": "(stereo unspecified)", "values": [
      {"measurement": "EC50", "setting": "[11]", "value": "> 120 µM (not active)"},
      {"measurement": "EC50", "setting": "[12]", "value": "> 120 µM (not active)"},
      {"measurement": "EC50", "setting": "[13]", "value": "> 120 µM (not active)"}
    ]},
    {"smiles": "CC(C)c1ccc(/C=N/NC(=O)c2ccccn2)cc1", "values": [
      {"measurement": "IC50", "setting": "[14]", "value": "6.08 µM (active)"},
      {"measurement": "AC50", "setting": "[1]", "value": "19.5 µM (active)"}
    ]},
    {"smiles": "CC(=O)Nc1ccc(S(=O)(=O)N2CCC(C(=O)NCc3ccco3)CC2)cc1", "values": [
      {"measurement": "EC50", "setting": "[4]", "value": "> 112 µM (not active)"},
      {"measurement": "EC50", "setting": "[5]", "value": "> 112 µM (not active)"}
    ]},
    {"smiles": "C[C@@H]1CN([C@@H](C)CO)C(=O)Cc2cc(NC(=O)c3ccncc3)ccc2O[C@@H]1CN(C)Cc1ccc(-c2ccccc2)cc1", "values": [
      {"measurement": "AC50", "setting": "[10]", "value": "22.3 µM (active)"}
    ]},
    {"smiles": "Cc1ccnc(N/C=C(/NC(=O)c2ccccc2)C(=O)N/N=C\\c2ccc(F)cc2)n1", "values": [
      {"measurement": "AC50", "setting": "[15]", "value": "> 70 µM (inactive)"},
      {"measurement": "AC50", "setting": "[16]", "value": "26.8 µM (active)"}
    ]},
    {"smiles": "CCc1ccc(Oc2coc3cc(OCC(=O)Nc4cc(C)ccc4C)ccc3c2=O)cc1", "values": [
      {"measurement": "EC50", "setting": "[11]", "value": "18.5 µM (active)"},
      {"measurement": "EC50", "setting": "[12]", "value": "14.8 µM (active)"},
      {"measurement": "EC50", "setting": "[13]", "value": "9.97 µM (active)"}
    ]},
    {"smiles": "O=C1NCCCC1C(=O)Nc1ccccc1C(F)(F)F", "note": "(stereo unspecified)", "values": [
      {"measurement": "AC50", "setting": "[2]", "value": "39.8 µM (inconclusive)"}
    ]},
    {"smiles": "COc1cccc(OCCCOc2ccccc2C(C)C)c1", "values": [
      {"measurement": "AC50", "setting": "[2]", "value": "22.4 µM (inconclusive)"},
      {"measurement": "AC50", "setting": "[17]", "value": "0.0178 µM (inconclusive)"},
      {"measurement": "AC50", "setting": "[9]", "value": "25.1 µM (inconclusive)"}
    ]},
    {"smiles": "N[C@H](C(=O)O)[C@H](OCc1ccccc1)C(=O)O", "values": [
      {"measurement": "AC50", "setting": "[2]", "value": "31.6 µM (inconclusive)"}
    ]}
  ]
}
